Series [1] can be described thus: Parallel artificial membrane permeability assay (PAMPA), BBB. The settings on record: for Papp: PAMPA. In general terms: PAMPA measures passive passage across an artificial lipid membrane.
Excerpt: The CNS bioavailability of the molecules was confirmed by a parallel artificial membrane permeability assay (PAMPA) [40].
Another series has as its target T1, recombinant human MAO-A (Homo sapiens, UniProt P21397).
T1 construct: purchased Sigma-Aldrich (St. Louis, MO, USA)
T1 sequence (P21397 1-527): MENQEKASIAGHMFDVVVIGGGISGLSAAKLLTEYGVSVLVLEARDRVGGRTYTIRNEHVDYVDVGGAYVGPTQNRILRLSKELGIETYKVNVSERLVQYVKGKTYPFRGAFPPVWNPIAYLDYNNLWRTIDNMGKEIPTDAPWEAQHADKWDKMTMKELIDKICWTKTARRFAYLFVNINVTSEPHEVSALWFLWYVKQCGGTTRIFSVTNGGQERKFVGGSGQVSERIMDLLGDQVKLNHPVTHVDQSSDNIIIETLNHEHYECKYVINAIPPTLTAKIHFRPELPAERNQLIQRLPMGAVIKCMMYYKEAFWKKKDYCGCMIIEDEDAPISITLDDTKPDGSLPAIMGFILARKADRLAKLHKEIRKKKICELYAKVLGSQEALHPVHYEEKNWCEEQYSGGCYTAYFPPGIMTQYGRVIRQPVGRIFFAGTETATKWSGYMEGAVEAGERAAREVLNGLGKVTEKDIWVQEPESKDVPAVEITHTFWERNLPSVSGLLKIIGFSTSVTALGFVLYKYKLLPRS
Nature of the series: MAO-A inhibition assay (kynuramine substrate) and kinetics. The settings on record: for remaining activity at 10 µM: 10 µM compound, read-out: Residual Activity at 10 µM (%) MAO-A; for Ki: Lineweaver–Burk and secondary plots; for Type of MAO-A inhibition: Lineweaver–Burk plots; for IC50: reference compounds after preincubation for 30 min with enzymes. The format is biochemical. The text has this:
(§1) The enzymes and chemicals were purchased from Sigma-Aldrich (St. Louis, MO, USA).

A further series addresses AChE (Electrophorus electricus, UniProt O42275). Put plainly: AChE inhibition. The format is biochemical. The settings on record: 10 µM compound; read-out: Residual Activity at 10 µM (%) AChE.
For series [2], the target named is T2, MAO-B (Homo sapiens, UniProt P27338).
T2 construct: purchased Sigma-Aldrich (St. Louis, MO, USA)
T2 sequence (P27338 1-520): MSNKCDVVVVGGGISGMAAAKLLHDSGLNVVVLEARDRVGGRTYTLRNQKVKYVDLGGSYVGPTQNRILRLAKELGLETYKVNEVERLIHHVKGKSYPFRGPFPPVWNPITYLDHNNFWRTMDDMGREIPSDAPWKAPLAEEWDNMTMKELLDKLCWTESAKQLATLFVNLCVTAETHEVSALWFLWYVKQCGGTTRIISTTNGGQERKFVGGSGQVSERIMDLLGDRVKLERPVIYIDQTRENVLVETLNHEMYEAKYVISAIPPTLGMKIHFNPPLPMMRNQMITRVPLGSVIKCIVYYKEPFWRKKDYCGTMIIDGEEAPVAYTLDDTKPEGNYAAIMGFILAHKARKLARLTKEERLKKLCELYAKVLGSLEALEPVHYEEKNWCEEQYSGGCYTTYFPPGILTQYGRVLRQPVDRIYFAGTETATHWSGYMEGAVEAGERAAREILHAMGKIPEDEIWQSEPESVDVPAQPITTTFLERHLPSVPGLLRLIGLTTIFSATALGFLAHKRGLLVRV
Nature of the series: MAO-B inhibition assay (benzylamine substrate) and kinetics. The settings on record: for remaining activity at 10 µM: 10 µM compound, read-out: Residual Activity at 10 µM (%) MAO-B; for Ki: Lineweaver–Burk and secondary plots; for Type of MAO-B inhibition: Lineweaver–Burk plots; for IC50: reference compounds after preincubation for 30 min with enzymes. Type of series: biochemical.
Excerpt: as §1

Series [3] concerns the target T2, MAO-B. Nature of the series: Reversibility of MAO-B inhibition by dialysis. The format is biochemical. The procedure: Reversibilities of EH7 were analyzed using a dialysis method after preincubating with MAO-B for 30 min, as previously described. […] The relative activities for undialyzed (AU) and dialyzed (AD) samples were compared to determine the reversibility patterns.

Details of series [4]: method as in PMID 12667689. The settings on record: PAMPA-BBB; cited from earlier work.

Sequence of AChE (O42275 24-633): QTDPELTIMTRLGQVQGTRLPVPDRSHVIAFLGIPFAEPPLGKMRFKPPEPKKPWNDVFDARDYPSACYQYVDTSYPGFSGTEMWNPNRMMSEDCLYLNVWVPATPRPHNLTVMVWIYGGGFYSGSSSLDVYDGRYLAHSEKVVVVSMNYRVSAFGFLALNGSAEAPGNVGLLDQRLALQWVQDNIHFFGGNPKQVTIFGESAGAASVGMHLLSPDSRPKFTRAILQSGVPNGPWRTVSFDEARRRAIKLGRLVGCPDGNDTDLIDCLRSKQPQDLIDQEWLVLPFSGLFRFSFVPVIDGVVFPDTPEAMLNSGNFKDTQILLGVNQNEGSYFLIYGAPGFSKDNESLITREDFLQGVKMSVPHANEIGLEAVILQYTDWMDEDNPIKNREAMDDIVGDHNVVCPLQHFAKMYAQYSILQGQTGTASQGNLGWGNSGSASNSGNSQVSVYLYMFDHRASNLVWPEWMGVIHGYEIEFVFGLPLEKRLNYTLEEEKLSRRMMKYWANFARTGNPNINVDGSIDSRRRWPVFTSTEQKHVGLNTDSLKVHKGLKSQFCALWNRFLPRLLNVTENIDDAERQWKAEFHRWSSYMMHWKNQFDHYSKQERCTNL

As for `CC(=O)[C@H]1CC[C@H]2[C@@H]3CCC4=CC(=O)CC[C@]4(C)[C@H]3CC[C@]12C` [Progesterone, reference compound], in series [1] (PAMPA-BBB), the “Experimental Pe” value was 9.02 ± 0.11 ×10^−6 cm/s.

What is called Papp is a coefficient for how fast a substance crosses the barrier. Higher therefore signals ready permeation. The term Ki denotes a measure of affinity in units of concentration, obtained from inhibition or displacement. By IC50 is commonly meant the concentration that inhibits the measured activity by half. `CCOc1ccc(C2=NNC(c3ccc(Cl)cc3)C2)cc1` (stereo not shown) [EH6, 5-(4-chlorophenyl)-3-(4-ethoxyphenyl)-4,5-dihydro-1H-pyrazole] came in with an apparent permeability coefficient (Papp) in series [1] of 14.3 ± 0.8 ×10⁻⁶ cm/s. For the same compound, on recombinant human MAO-A, the remaining activity at 10 µM turned out to be 68.1 ± 0.18%, the inhibitory constant (Ki) was determined as 10.8 ± 1.03 µM, the “Type of MAO-A inhibition” value was “competitive inhibitor” and the concentration for half-maximal inhibition (IC50) was 22.3 ± 0.12 µM. For the same compound, the remaining activity at 10 µM on AChE was 63.5 ± 4.99%. On MAO-B [2], the remaining activity at 10 µM was 19.4 ± 1.01%, the Ki stood at 0.19 ± 0.016 µM, the “Type of MAO-B inhibition” value is “competitive inhibitor” and the IC50 is 0.4 ± 0.051 µM.

For `CCOc1ccc(C2=NNC(c3ccc(F)cc3)C2)cc1` (stereo not shown) [EH7, 3-(4-ethoxyphenyl)-5-(4-fluorophenyl)-4,5-dihydro-1H-pyrazole], the apparent permeability coefficient (Papp) in series [1] is 14.1 ± 0.71 ×10⁻⁶ cm/s. Besides, on recombinant human MAO-A, the remaining activity at 10 µM was found to be 46.9 ± 1.25%, the inhibitory constant (Ki) turned out to be 3.64 ± 0.18 µM, the “Type of MAO-A inhibition” value was “competitive inhibitor” and the IC50 amounted to 8.38 ± 0.88 µM. In addition, the “Relative activity of undialyzed sample (AU)” value at MAO-B [3] (EH7 0.15 µM, lazabemide 0.20 µM, pargyline 0.30 µM, 30 min preincubation) is listed as 12.5%. In addition, at MAO-B [3] (EH7 0.15 µM, lazabemide 0.20 µM, pargyline 0.30 µM, 30 min preincubation, dialysis), the “Relative activity of dialyzed sample (AD)” value stood at 89.5%. Moreover, the “Reversibility of MAO-B inhibition” value at MAO-B [3] (dialysis) is “reversible inhibitor”. For the same compound, the remaining activity at 10 µM on AChE is 74 ± 0.71%. Also, on MAO-B [2], the “SI (selectivity index)” value is on record as 133.0, the remaining activity at 10 µM came to 4.03 ± 0.53%, the affinity corresponds to a Ki of 0.034 ± 0.0067 µM and the “Type of MAO-B inhibition” value is “competitive inhibitor”. In addition, at MAO-B [2], half-maximal inhibition (IC50) required 0.063 ± 0.0042 µM.

Consider `NCCc1ccc(O)c(O)c1` [Dopamine], for which the “Bibliography Pe” value in series [4] was 0.2 ×10⁻⁶ cm/s.

Turning to `CCOc1ccc(C2=NNC(c3ccc(Br)cc3)C2)cc1` (stereo not shown) [EH8, 5-(4-bromophenyl)-3-(4-ethoxyphenyl)-4,5-dihydro-1H-pyrazole], the apparent permeability coefficient (Papp) in series [1] is 14.6 ± 0.26 ×10⁻⁶ cm/s. Besides, at recombinant human MAO-A, the remaining activity at 10 µM is 33.5 ± 0.65% and the IC50 was 4.31 ± 0.013 µM. For the same compound, the remaining activity at 10 µM at AChE came to 53.7 ± 2.15%. On MAO-B [2], the “SI (selectivity index)” value worked out at 6.3, the remaining activity at 10 µM amounted to 11.3 ± 0.13% and half-maximal inhibition (IC50) required 0.69 ± 0.017 µM.

Consider `CCOc1ccc(C2=NNC(c3ccccc3)C2)cc1` (stereo not shown) [EH1, 3-(4-ethoxyphenyl)-5-phenyl-4,5-dihydro-1H-pyrazole], for which the Papp in series [1] turned out to be 10.3 ± 0.33 ×10⁻⁶ cm/s. Moreover, on recombinant human MAO-A, the remaining activity at 10 µM was 99.1 ± 0.27% and the half-inhibitory concentration (IC50) is above 40 µM. At AChE, the remaining activity at 10 µM amounted to 81 ± 6.21%. Also, at MAO-B [2], the “SI (selectivity index)” value was above 7.43, the remaining activity at 10 µM was 33.7 ± 0.96% and the half-maximal inhibitory concentration (IC50) came out at 5.38 ± 0.16 µM.

The compound `CN1C(C(=O)Nc2ccccn2)=C(O)c2ccccc2S1(=O)=O` [Piroxicam, reference compound] yielded an apparent permeability coefficient (Papp) in series [1] of 2.43 ± 0.3 ×10⁻⁶ cm/s. In series [1] (PAMPA-BBB), the “Prediction (CNS permeability)” value is listed as “CNS+/−”. The “Bibliography Pe” value in series [4] was 2.5 ×10⁻⁶ cm/s.

Values taken from PMC8198649, “Development of Halogenated Pyrazolines as Selective Monoamine Oxidase-B Inhibitors: Deciphering via Molecular Dynamics Approach” (Molecules, 2021).
